Assay results taken from PubChem BioAssay AID256 (DTP/NCI, 2004).
Where “and” joins values, the source holds several entries; their conditions need not be identical. Equal entries are not always repeated. Toxic doses and inconclusive results are not listed. The calls were made as follows: active = survival T/C of 150% or more; inactive = T/C below 125% in these data.

System: CD2F1 mice, L1210 leukemia ip, survival T/C
Assay: NCI In Vivo Anticancer Drug Screen. Data for tumor model L1210 Leukemia (intraperitoneal) in CD2F1 (CDF1) mice
Conditions: higher = longer survival
In short: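 Implant tumor; dose compound or vehicle; measure endpoint in both groups; report treated divided by control.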

[1] = endpoint: mean survival time, dose: 100.0 mg/kg/injection, schedule: Q04DX002 (ip), vehicle: saline
[2] = endpoint: mean survival time, dose: 200.0 mg/kg/injection, schedule: Q04DX002 (ip), vehicle: saline
[3] = endpoint: mean survival time, dose: 100.0 mg/kg/injection, schedule: Q04DX003 (ip), vehicle: saline
[4] = endpoint: mean survival time, dose: 200.0 mg/kg/injection, schedule: Q04DX003 (ip), vehicle: saline
[5] = endpoint: mean survival time, dose: 400.0 mg/kg/injection, schedule: Q04DX003 (ip), vehicle: saline
[6] = endpoint: mean survival time, dose: 12.5 mg/kg/injection, schedule: Q01DX009 (ip), vehicle: other
[7] = endpoint: mean survival time, dose: 25.0 mg/kg/injection, schedule: Q01DX009 (ip), vehicle: other
[8] = endpoint: mean survival time, dose: 100.0 mg/kg/injection, schedule: Q01DX009 (ip), vehicle: other
[9] = endpoint: mean survival time, dose: 25.0 mg/kg/injection, schedule: Q04DX003 (ip), vehicle: saline
[10] = endpoint: mean survival time, dose: 50.0 mg/kg/injection, schedule: Q04DX003 (ip), vehicle: saline
[11] = endpoint: mean survival time, dose: 75.0 mg/kg/injection, schedule: Q01DX001 (ip), vehicle: saline
[12] = endpoint: mean survival time, dose: 150.0 mg/kg/injection, schedule: Q01DX001 (ip), vehicle: saline
[13] = endpoint: mean survival time, dose: 300.0 mg/kg/injection, schedule: Q01DX001 (ip), vehicle: saline
[14] = endpoint: mean survival time, dose: 100.0 mg/kg/injection, schedule: Q04DX002 (ip), vehicle: saline with Tween-80
[15] = endpoint: mean survival time, dose: 200.0 mg/kg/injection, schedule: Q04DX002 (ip), vehicle: saline with Tween-80
[16] = endpoint: mean survival time, dose: 100.0 mg/kg/injection, schedule: Q01DX009 (ip), vehicle: saline with Tween-80
[17] = endpoint: mean survival time, dose: 200.0 mg/kg/injection, schedule: Q01DX009 (ip), vehicle: saline with Tween-80

Measured: T/C

CC/C(=N\[N+](C)(C)C)c1ccccc1
inactive: endpoint: mean survival time, dose: 18.8 mg/kg/injection, schedule: Q01DX009 (ip), vehicle: saline 96 % of control | endpoint: mean survival time, dose: 37.5 mg/kg/injection, schedule: Q01DX009 (ip), vehicle: saline 91 % of control

CCCCN=C(Cl)C(Cl)(c1ccccc1)c1ccccc1
inactive: [1] 98 % of control | [2] 103 % of control | endpoint: mean survival time, dose: 400.0 mg/kg/injection, schedule: Q04DX002 (ip), vehicle: saline 95 % of control

CCNc1ncc2ccccc2c1-c1ccc(N2CCN(CCCl)CC2)cc1
inactive: endpoint: mean survival time, dose: 25.0 mg/kg/injection, schedule: Q04DX003 (ip), vehicle: saline + alcohol 111 % of control | endpoint: mean survival time, dose: 50.0 mg/kg/injection, schedule: Q04DX003 (ip), vehicle: saline + alcohol 102 % of control | endpoint: mean survival time, dose: 100.0 mg/kg/injection, schedule: Q04DX003 (ip), vehicle: saline + alcohol 102 % of control | endpoint: mean survival time, dose: 200.0 mg/kg/injection, schedule: Q04DX003 (ip), vehicle: saline + alcohol 111 % of control

O=C(CCC(=O)NO)NO
inactive: [1] 101 % of control | [2] 90 % of control

Cc1cccc(-c2nn[nH]n2)n1
inactive: endpoint: mean survival time, dose: 12.5 mg/kg/injection, schedule: Q01DX001 (ip), vehicle: saline with Tween-80 98 % of control | endpoint: mean survival time, dose: 25.0 mg/kg/injection, schedule: Q01DX001 (ip), vehicle: saline with Tween-80 90 % of control | endpoint: mean survival time, dose: 100.0 mg/kg/injection, schedule: Q01DX001 (ip), vehicle: saline 103 % of control | endpoint: mean survival time, dose: 200.0 mg/kg/injection, schedule: Q01DX001 (ip), vehicle: saline 113 % of control | endpoint: mean survival time, dose: 400.0 mg/kg/injection, schedule: Q01DX001 (ip), vehicle: saline 101 % of control

CCOC(=O)/C=C(\C)Sc1ccc(Cl)cc1
inactive: endpoint: mean survival time, dose: 100.0 mg/kg/injection, schedule: Q04DX003 (ip), vehicle: alcohol 92 % of control | endpoint: mean survival time, dose: 200.0 mg/kg/injection, schedule: Q04DX003 (ip), vehicle: alcohol 87 % of control | endpoint: mean survival time, dose: 400.0 mg/kg/injection, schedule: Q04DX003 (ip), vehicle: alcohol 102 % of control

N#CCCN1CCOCC1
inactive: endpoint: mean survival time, dose: 100.0 mg/kg/injection, schedule: Q01DX009 (ip), vehicle: saline 95 % of control | [3] 92 % of control | endpoint: mean survival time, dose: 200.0 mg/kg/injection, schedule: Q01DX009 (ip), vehicle: saline 93 % of control | [4] 103 % of control | endpoint: mean survival time, dose: 400.0 mg/kg/injection, schedule: Q01DX009 (ip), vehicle: saline 101 % of control | [5] 103 % of control

O=C(Nc1ccn(C2CC(O)C(CO)O2)c(=O)n1)c1ccccc1 (configuration not stated)
inactive: endpoint: median survival time, dose: 12.5 mg/kg/injection, schedule: Q01DX005 (ip), vehicle: saline with Tween-80 100 % of control | endpoint: median survival time, dose: 25.0 mg/kg/injection, schedule: Q01DX005 (ip), vehicle: saline with Tween-80 104 % of control | endpoint: median survival time, dose: 50.0 mg/kg/injection, schedule: Q01DX005 (ip), vehicle: saline with Tween-80 103 % of control | endpoint: median survival time, dose: 100.0 mg/kg/injection, schedule: Q01DX005 (ip), vehicle: saline with Tween-80 98 % of control | endpoint: median survival time, dose: 200.0 mg/kg/injection, schedule: Q01DX005 (ip), vehicle: saline with Tween-80 95 % of control

COc1ccc(C(OC/C=C(\C)CCC=C(C)C)OC/C=C(\C)CCC=C(C)C)cc1
inactive: [6] 90 % of control | [7] 90 % of control | endpoint: mean survival time, dose: 50.0 mg/kg/injection, schedule: Q01DX009 (ip), vehicle: other 90 % of control | [8] 95 % of control | endpoint: mean survival time, dose: 200.0 mg/kg/injection, schedule: Q01DX009 (ip), vehicle: other 95 % of control

C=C(C)CNCC(=C)C
inactive: [9] 102 % of control | [10] 98 % of control | [3] 102 % of control and 106 % of control

CC(=O)OC(C)(C)/C=C/C(=O)[C@](C)(O)[C@H]1[C@H](O)C[C@@]2(C)[C@@H]3CC=C4[C@@H](CC[C@H](O)C4(C)C)[C@]3(CO)C(=O)C[C@]12C
inactive: endpoint: mean survival time, dose: 0.6 mg/kg/injection, schedule: Q01DX009 (ip), vehicle: saline with Tween-80 105 % of control | endpoint: mean survival time, dose: 0.63 mg/kg/injection, schedule: Q04DX003 (ip), vehicle: saline with Tween-80 105 % of control | endpoint: mean survival time, dose: 1.2 mg/kg/injection, schedule: Q01DX009 (ip), vehicle: saline with Tween-80 105 % of control | endpoint: mean survival time, dose: 1.25 mg/kg/injection, schedule: Q04DX003 (ip), vehicle: saline with Tween-80 112 % of control | endpoint: mean survival time, dose: 2.4 mg/kg/injection, schedule: Q01DX009 (ip), vehicle: saline with Tween-80 107 % of control | endpoint: mean survival time, dose: 2.5 mg/kg/injection, schedule: Q04DX003 (ip), vehicle: saline with Tween-80 114 % of control

CC/C=C(\C)C(CCC)(CN=O)C(=O)OCC (configuration not stated)
inactive: [11] 101 % of control | [12] 97 % of control | [13] 95 % of control

COc1ccc(NC(=O)Nc2cccc(Cl)c2)c(OC)c1
inactive: [14] 88 % of control | [15] 98 % of control

COc1cc2c(c(OC)c1OC)-c1ccc(SC)c(=O)cc1[C@@H](NC1OCC(O)C(O)C1O)CC2 (some centres not stated)
inactive: endpoint: mean survival time, dose: 6.0 mg/kg/injection, schedule: Q01DX009 (ip), vehicle: other 102 % of control | endpoint: mean survival time, dose: 12.0 mg/kg/injection, schedule: Q01DX009 (ip), vehicle: other 120 % of control | [6] 106 % of control | [7] 119 % of control | [8] 88 % of control

CCOC(CNc1ccc([N+](=O)[O-])cc1)OCC
inactive: endpoint: mean survival time, dose: 100.0 mg/kg/injection, schedule: Q01DX001 (ip), vehicle: saline with Tween-80 95 % of control and 100 % of control | [16] 100 % of control and 106 % of control | [14] 100 % of control | endpoint: mean survival time, dose: 100.0 mg/kg/injection, schedule: Q04DX003 (ip), vehicle: saline with Tween-80 94 % of control | endpoint: mean survival time, dose: 200.0 mg/kg/injection, schedule: Q01DX001 (ip), vehicle: saline with Tween-80 92 % of control and 97 % of control | [17] 100 % of control and 102 % of control | [15] 98 % of control | endpoint: mean survival time, dose: 200.0 mg/kg/injection, schedule: Q04DX003 (ip), vehicle: saline with Tween-80 104 % of control | endpoint: mean survival time, dose: 400.0 mg/kg/injection, schedule: Q01DX001 (ip), vehicle: saline with Tween-80 101 % of control and 103 % of control | endpoint: mean survival time, dose: 400.0 mg/kg/injection, schedule: Q01DX009 (ip), vehicle: saline with Tween-80 120 % of control and 111 % of control | endpoint: mean survival time, dose: 400.0 mg/kg/injection, schedule: Q04DX002 (ip), vehicle: saline with Tween-80 100 % of control | endpoint: mean survival time, dose: 400.0 mg/kg/injection, schedule: Q04DX003 (ip), vehicle: saline with Tween-80 96 % of control

CC(C)NC(=O)CCCCn1c(=O)c2ccccc2c(=O)n1C
inactive: [9] 96 % of control | [10] 96 % of control | [3] 98 % of control | [4] 113 % of control | [5] 104 % of control

[O]=[Zr]
inactive: [11] 94 % of control | [12] 97 % of control | [13] 98 % of control

CN1Cc2c([nH]c3ccccc23)C(O)C1 (configuration not stated)
inactive: [11] 98 % of control | [12] 106 % of control

CC1=NN(c2cccc(S(=O)(=O)O)c2)C(=O)C1Cl (configuration not stated)
inactive: endpoint: mean survival time, dose: 50.0 mg/kg/injection, schedule: Q01DX009 (ip), vehicle: saline with Tween-80 98 % of control | [16] 95 % of control | [17] 95 % of control

CCOCCO
inactive: endpoint: mean survival time, dose: 5.0 mg/kg/injection, schedule: Q01DX001 (ip), vehicle: saline sonified 103 % of control | endpoint: mean survival time, dose: 10.0 mg/kg/injection, schedule: Q01DX001 (ip), vehicle: saline sonified 101 % of control | endpoint: mean survival time, dose: 20.0 mg/kg/injection, schedule: Q01DX001 (ip), vehicle: saline sonified 101 % of control
